Reference: ChEMBL document CHEMBL1201862, “PubChem BioAssay data set” (2004)
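Test compounds were applied to cells in 96-well plates for 48 hours at 5 doses. Here, GI50 denotes the concentration required for 50% inhibition of growth.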 The source made the active and inactive calls. Cut-off read from the data, not from the text of the source: active = GI50 up to about 1.1 µM and inactive = higher.

Experiments:
Assay in all cases: inhibition of tumour cell growth, NCI panel, 48 h
[1] = system: CAKI-1
[2] = system: CCRF-CEM
[3] = system: HCC 2998
[4] = system: HOP-62
[5] = system: Hs-578T
[6] = system: KM12
[7] = system: LOX IMVI
[8] = system: M14
[9] = system: MOLT-4
[10] = system: Malme-3M
[11] = system: NCI-H23
[12] = system: NCI-H522
[13] = system: OVCAR-3
[14] = system: OVCAR-8
[15] = system: RPMI-8226
[16] = system: SK-MEL-2
[17] = system: SK-MEL-5
[18] = system: SNB-19
[19] = system: T47D
[20] = system: UACC-257

Row | SMILES | GI50 [1] | GI50 [2] | GI50 [3] | GI50 [4] | GI50 [5] | GI50 [6] | GI50 [7] | GI50 [8] | GI50 [9] | GI50 [10] | GI50 [11] | GI50 [12] | GI50 [13] | GI50 [14] | GI50 [15] | GI50 [16] | GI50 [17] | GI50 [18] | GI50 [19] | GI50 [20]
1 | O=C1Nc2ccc(Br)cc2C1=Nc1cccnc1 | 20.7 µM (inactive) | 16.2 µM (inactive) | 20.6 µM (inactive) | 25 µM (inactive) | 19.9 µM (inactive) | 27.4 µM (inactive) | 15.7 µM (inactive) | 15.7 µM (inactive) | 22.5 µM (inactive) | 22.3 µM (inactive) | 20.7 µM (inactive) | 13.2 µM (inactive) | 18.9 µM (inactive) | 25.3 µM (inactive) | 21.4 µM (inactive) | 23.4 µM (inactive) | 17.8 µM (inactive) | 41.2 µM (inactive) | 20.6 µM (inactive) | 21.4 µM (inactive)
2 | O=C(CCSC(CC(=O)c1ccc(Cl)cc1)c1ccc(Cl)cc1)Nc1ccc(Cl)cc1 (stereo not given) | 18.4 µM (inactive) | 2.09 µM (inactive) | 14 µM (inactive) | 13.3 µM (inactive) | 26.3 µM (inactive) | 3.21 µM (inactive) | 5.83 µM (inactive) | 14.4 µM (inactive) | 3.01 µM (inactive) | 16.9 µM (inactive) | 16.3 µM (inactive) | 14.5 µM (inactive) | 14.1 µM (inactive) | 14.9 µM (inactive) | 2.19 µM (inactive) | 15.5 µM (inactive) | 15.9 µM (inactive) | 13.7 µM (inactive) | 6.03 µM (inactive) | 15.7 µM (inactive)
3 | O=C(/C=C/c1ccc(OCC(=O)N2CCN(c3ccccc3)CC2)cc1)c1ccc(Cl)cc1 | 78.5 µM (inactive) | > 100 µM (inactive) | > 100 µM (inactive) | 21.7 µM (inactive) | 21.7 µM (inactive) | > 100 µM (inactive) | > 100 µM (inactive) | 84.7 µM (inactive) | > 100 µM (inactive) | 57.3 µM (inactive) | 50.4 µM (inactive) | 49.3 µM (inactive) | > 92 µM (inactive) | 45.9 µM (inactive) | > 100 µM (inactive) | 36.5 µM (inactive) | 54.2 µM (inactive) | 18.6 µM (inactive) | 52.7 µM (inactive) | > 72.4 µM (inactive)
4 | Oc1ccc(-c2cc(-c3cc(-c4ccc(O)cc4)no3)on2)cc1 | 56.6 µM (inactive) | 0.873 µM (active) | > 63.4 µM (inactive) | > 50.9 µM (inactive) | > 100 µM (inactive) | 11.8 µM (inactive) | 11.5 µM (inactive) | > 32.4 µM (inactive) | 1.35 µM (inactive) | 46.1 µM (inactive) | > 100 µM (inactive) | 19.7 µM (inactive) | > 100 µM (inactive) | > 100 µM (inactive) | 3.52 µM (inactive) | > 48 µM (inactive) | 36.9 µM (inactive) | > 100 µM (inactive) | 33.1 µM (inactive) | 7.64 µM (inactive)
5 | CN(CCN)[C@H](CSSC[C@@H](c1ccccc1O)N(C)CCN)c1ccccc1O | 13 µM (inactive) | 1.44 µM (inactive) | 12 µM (inactive) | 12.1 µM (inactive) | 20.4 µM (inactive) | 11.1 µM (inactive) | 4.27 µM (inactive) | 13.5 µM (inactive) | 4.73 µM (inactive) | 16.3 µM (inactive) | 13.8 µM (inactive) | 16.5 µM (inactive) | 8.38 µM (inactive) | 9.04 µM (inactive) | 12.9 µM (inactive) | 14.6 µM (inactive) | 12 µM (inactive) | 12.1 µM (inactive) | 26.1 µM (inactive) | 14.9 µM (inactive)
6 | Cc1ccc2c(c1)C(C1Cc3cccc(C)c3C1=O)OC2=O (stereo not given) | > 100 µM (inactive) | > 100 µM (inactive) | > 100 µM (inactive) | > 100 µM (inactive) | > 100 µM (inactive) | 96.2 µM (inactive) | 34.2 µM (inactive) | > 100 µM (inactive) | 96.4 µM (inactive) | > 100 µM (inactive) | > 100 µM (inactive) | > 100 µM (inactive) | > 100 µM (inactive) | > 100 µM (inactive) | 30.3 µM (inactive) | > 100 µM (inactive) | 56.4 µM (inactive) | > 100 µM (inactive) | > 100 µM (inactive) | > 100 µM (inactive)
7 | O=C(O)/C(O)=C\C(=O)c1ccc(Br)cc1 | > 100 µM (inactive) | 68.7 µM (inactive) | > 100 µM (inactive) | > 100 µM (inactive) | > 100 µM (inactive) | > 100 µM (inactive) | > 100 µM (inactive) | > 100 µM (inactive) | > 100 µM (inactive) | > 100 µM (inactive) | > 100 µM (inactive) | > 100 µM (inactive) | > 100 µM (inactive) | > 100 µM (inactive) | > 100 µM (inactive) | > 100 µM (inactive) | > 100 µM (inactive) | > 100 µM (inactive) | > 100 µM (inactive) | > 100 µM (inactive)
8 | CN(C)c1ccc(/N=N\c2cccc3ncccc23)cc1 | > 93.8 µM (inactive) | 51.3 µM (inactive) | 0.302 µM (active) | 93.5 µM (inactive) | 44.7 µM (inactive) | 33.6 µM (inactive) | 53.2 µM (inactive) | 61.7 µM (inactive) | 26.2 µM (inactive) | > 90.8 µM (inactive) | > 100 µM (inactive) | 20.8 µM (inactive) | 22.9 µM (inactive) | > 100 µM (inactive) | 18.1 µM (inactive) | > 100 µM (inactive) | 20.4 µM (inactive) | > 58.1 µM (inactive) | 1.89 µM (inactive) | > 100 µM (inactive)
9 | COC1(OC)c2occc2C(=N)c2ccc(=O)oc21 | > 100 µM (inactive) | 85.9 µM (inactive) | > 100 µM (inactive) | > 100 µM (inactive) | > 100 µM (inactive) |  | > 100 µM (inactive) | > 100 µM (inactive) | > 100 µM (inactive) | 18.2 µM (inactive) | > 100 µM (inactive) | > 100 µM (inactive) | 77.8 µM (inactive) |  | > 100 µM (inactive) | > 100 µM (inactive) | 22.4 µM (inactive) | > 100 µM (inactive) | > 100 µM (inactive) | > 100 µM (inactive)
10 | Cc1cc(NS(=O)(=O)c2ccc(Nc3c4ccccc4nc4ccc(C(=O)Nc5ccc(S(=O)(=O)N=C(N)N)cc5)cc34)cc2)no1 | > 100 µM (inactive) | 66.1 µM (inactive) | > 100 µM (inactive) | > 100 µM (inactive) | > 100 µM (inactive) | > 100 µM (inactive) | > 100 µM (inactive) | > 100 µM (inactive) | > 100 µM (inactive) | > 100 µM (inactive) | > 100 µM (inactive) | > 100 µM (inactive) | > 100 µM (inactive) | > 100 µM (inactive) | > 100 µM (inactive) | > 100 µM (inactive) | > 100 µM (inactive) | > 100 µM (inactive) | > 100 µM (inactive) | > 100 µM (inactive)
11 | CCCCCCCCCCC1OC([C@@H](O)CC[C@H](O)C2CC[C@@H](CCCCCCCC(O)CC3=CC(C)OC3=O)O2)CCC1O (stereo not given in full) | 11.7 µM (inactive) | 5.97 µM (inactive) | 8 µM (inactive) | 4.53 µM (inactive) | 2.68 µM (inactive) | 2.58 µM (inactive) | 1.27 µM (inactive) | 8.04 µM (inactive) |  | 14 µM (inactive) | 0.363 µM (active) | 5.89 µM (inactive) | 5.64 µM (inactive) | 3.79 µM (inactive) | 3.59 µM (inactive) | 9.08 µM (inactive) | 0.115 µM (active) | 9.46 µM (inactive) | 7.71 µM (inactive) | 0.622 µM (active)
12 | O=C(/C=C\Nc1ccccc1O)C(Cl)(Cl)Cl | 34.9 µM (inactive) | 28.1 µM (inactive) | 26.3 µM (inactive) | 24.1 µM (inactive) | 69 µM (inactive) | 33.7 µM (inactive) | 31.8 µM (inactive) | 38.9 µM (inactive) | 27.7 µM (inactive) | 82 µM (inactive) | 35.7 µM (inactive) | 22.6 µM (inactive) | 17.8 µM (inactive) | 35.9 µM (inactive) | 25.3 µM (inactive) | 43.2 µM (inactive) | > 100 µM (inactive) | 76.2 µM (inactive) | 28 µM (inactive) | 33.5 µM (inactive)
13 | Cc1ccc(-c2c3c(n(C4OC(CO)C(O)C(O)C4O)c(=S)c2C#N)CC(C)(C)CC3=O)cc1 (stereo not given) | > 100 µM (inactive) | 68.2 µM (inactive) | > 100 µM (inactive) | > 100 µM (inactive) | 70.6 µM (inactive) | > 100 µM (inactive) | 48.3 µM (inactive) | 93.5 µM (inactive) | 36.5 µM (inactive) | 96.6 µM (inactive) | > 100 µM (inactive) | > 100 µM (inactive) | > 100 µM (inactive) | 71.9 µM (inactive) | 32.7 µM (inactive) | 80.9 µM (inactive) | 34.6 µM (inactive) | > 100 µM (inactive) | 34.4 µM (inactive) | > 100 µM (inactive)
14 | O=c1ccn([C@@H]2C[C@@H]2CO)c(=O)[nH]1 | > 100 µM (inactive) | > 100 µM (inactive) | > 100 µM (inactive) | > 100 µM (inactive) | > 100 µM (inactive) | > 100 µM (inactive) | > 100 µM (inactive) | > 100 µM (inactive) |  | > 100 µM (inactive) | > 100 µM (inactive) | > 100 µM (inactive) |  | > 100 µM (inactive) | > 100 µM (inactive) | > 100 µM (inactive) | > 100 µM (inactive) | > 100 µM (inactive) | > 100 µM (inactive) | > 100 µM (inactive)
